Results taken from PMC5743070 (The Journal of Biological Chemistry, 2017).

Experiments:
TTD–PHD (UHRF1_126–366) = target: T1, TTD–PHD (UHRF1_126–366) (Homo sapiens, UniProt Q96T88); assay: SES ensemble fitting of SAXS data of TTD–PHD with BPC
T1 construct: His tag (TEV-cleavable) (N); made in house
T1 sequence (Q96T88 126-366): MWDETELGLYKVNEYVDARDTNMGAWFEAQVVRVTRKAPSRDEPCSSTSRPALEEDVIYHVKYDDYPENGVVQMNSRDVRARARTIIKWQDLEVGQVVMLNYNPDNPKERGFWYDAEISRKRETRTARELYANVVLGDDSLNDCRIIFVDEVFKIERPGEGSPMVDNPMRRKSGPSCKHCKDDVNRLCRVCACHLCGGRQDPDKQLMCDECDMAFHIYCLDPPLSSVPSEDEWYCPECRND
Excerpt: The Rg-based Kratky plot is shifted to higher coordinate values with respect to its position for apo TTD–PHD (supplemental Fig. S4). […] We performed SES fitting of SAXS data collected for TTD–PHD in the presence of BPC using MDPIN/OUT. The optimal ensemble, OEBPC(SAXS), fits the data reasonably well in the q range of 0 < q < 0.2. The Rg distribution is bimodal with the major peak at ∼25 Å and a minor peak at ∼34 Å (Fig. 4D). […] These less-compact, “linker-out” conformers should be unable to bind to H3K9me3 peptides in a cooperative manner (as in PDB code 3ASK ([10], [23])) and, in addition, be unable to bind via the isolated TTD because groove-H3K9me3 contacts found to be essential for this binding mode, as reported by Nady et al. ([9]), are blocked.
We used an ensemble approach for the structural characterization of the TTD–PHD in solution by utilizing the SES protocol ([18]). The strategy on which the SES method is based consists of two main steps: 1) generate the initial ensemble of conformations to approximate the conformational space available for a system in solution and 2) find the optimal population weight for each member of the initial ensemble that minimizes the discrepancy between the ensemble-predicted and the observed experimental data. The goodness of the ensemble fit is measured as χ^2. […] The ARMOR output was analyzed to select the optimal ensemble size using the l-curve ([18]), and the vector of the optimal weights, w, was calculated by averaging over top near optimal solutions with similar value of χ^2. […]

TTD (UHRF1_121–286) = target: T2, TTD (UHRF1_121–286) (Homo sapiens, UniProt Q96T88); assay: DSF thermal shift of TTD; format: binding; settings: 0.1 mg/ml TTD, absence and presence of 3 mM BPC, 0.1 M HEPES pH 7.5, 0.15 M NaCl, 5× Sypro Orange, 4 °C/min
T2 construct: UHRF1_121–286 corresponding to the TTD; made in house
T2 sequence (Q96T88 121-286): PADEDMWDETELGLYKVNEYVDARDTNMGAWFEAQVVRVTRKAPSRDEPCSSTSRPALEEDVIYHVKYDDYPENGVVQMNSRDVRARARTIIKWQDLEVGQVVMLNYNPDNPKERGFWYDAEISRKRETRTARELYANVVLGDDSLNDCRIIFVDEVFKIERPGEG
Procedure: DSF measurements were performed with a Light Cycler 480 II instrument from Roche Applied Science. TTD (UHRF1_121–286) was buffered at 0.1 mg/ml in 0.1 M HEPES (pH 7.5), 0.15 M NaCl, and 5× Sypro Orange. Sypro Orange was purchased from Invitrogen as a 5,000× stock solution, and it was diluted 1:1,000 to yield a 5× working concentration. Experiments were run in the absence and presence of 3 mM BPC. DSF was carried out by increasing the temperature from 20 to 95 °C at a heating rate of 4 °C/min, and data points were collected at 1 °C intervals. The temperature scan curves were fitted to a Boltzmann sigmoid function, and the Tm values were obtained from the midpoint of the transition as described previously ([47]).
Figure S5 (related to Fig. 4)
Binding of BPC in the groove of TTD. […]
labeled (at the N-terminus) H3K9me3(1-25) peptide, (B) ITC, and (C) DSF. (D) KD estimates of BPC bind-ing based on I211 and Y239 amide peak movement (where Δ(ppm) = ((ΔδHN)2 + (ΔδN/6.5)2 )1⁄2) in (1H-15N) HSQC spectra when the TTD is titrated with BPC. […]
as a function of TTD sequence resulting from BPC (blue) or PBR peptide (red) binding. (F) HSQC overlays […]
ment:protein), and PBR peptide ratios (bottom spectrum - from 1:1 to 5:1 peptide:protein). The protein con-centration was ~250 µM for all NMR experiments, and the DMSO concentration was 5% for NMR titrations […]

[1] = SES fitting using MDPIN/OUT, TTD–PHD with BPC

- contribution of linker-bound structures to OEBPC(SAXS) (TTD–PHD (UHRF1_126–366); 6,000 starting structures with linker bound to groove): zero contribution
- Rg distribution of OEBPC(SAXS), major peak (TTD–PHD (UHRF1_126–366); [1]): ~25 Å
- Rg distribution of OEBPC(SAXS), minor peak (TTD–PHD (UHRF1_126–366); [1]): ~34 Å
- ΔTm (thermal shift) (TTD (UHRF1_121–286)): 2.9 °C
SMILES: N=C(N)N1CCC(Cc2ccccc2)CC1 [BPC, 4-benzylpiperidine-1-carboximidamide]
